Test results from patent US20170131285A1, “METHODS AND COMPOSITIONS FOR DIAGNOSING, MONITORING AND TREATING CANCER” (INSERM (Institut National de la Sante et de la Recherche …, priority 2014, published 2017).

How the values were obtained:
HCT116 cells = assay: HSP70-exosomes release from HCT116 cells treated with chemotherapy drugs (BLI, flow cytometry); type: cell-based, human; details: for amount of HSP70-exosomes released, dose-response / number of exosomes at higher doses: HCT116, 48 h; for amount of HSP70-exosomes released, dose-response: concentrations inducing a relatively low amount of cell death, flow cytometry; for number of exosomes at higher doses: doses inducing more than 40% cell death; for amount of HSP70-exosomes released, extent of increase: HCT116, toxic equivalent concentrations: oxaliplatin 5 μM, 5FU 3 μM, paclitaxel 50 nM, gemcitabin 10 μM, doxorubicin 2.5 μM, BLI
Experimental: FIG. 7: Effect of chemotherapy drugs on HSP70-exosomes release. A) Association curves of HSP70-exosomes isolated from the supernatant of HCT116 cells treated or not with oxaliplatin (5 μM), 5FU (3 μM), paclitaxel (50 nM), gemcitabin (10 μM) and doxorubicin ([…]). For the BLI, biotinylated A8 was immobilized on streptavidin sensor tips, n=3. B-C) HCT116 cells were treated with 5FU (3, 12, 24 and 36 μM) or oxaliplatin (5, 20, 40 and 60 μM) or doxorubicin (2.5, 10, and 20 μM) during 48 h. B) concentration of HSP70-exosomes released was measured by flow cytometry. C) measured apoptosis of HCT116 (7AAD and FITC-Annexin V).
Cells were cultured in medium depleted from serum-derived exosomes. Supernatants were collected from cell lines and sequentially centrifuged at 300 g for 10 minutes (4° C.) and at 2,000 g for 10 minutes. Then, exosomes were ultracentrifugated at 100,000 g for 70 minutes and washed in PBS. The same protocol was used for urines and blood samples. To evaluate exosome concentrations, we used a Nano Sight LM10 instrument (NanoSight, Amesbury, UK).
Protein-protein interaction experiments were conducted with an Octet Red instrument (ForteBio, USA). The ligand (A8 or TLR2) was biotinylated using EZ-Link NHS-PEG4-biotin (2 nM, 30 min, RT, Thermo Fisher Scientific, Germany) and immobilized on streptavidin sensors (96-well plate black, ForteBio, USA). Functionalized sensors were incubated in PBS (10 min) then incubated with exosomes (10^6, from cancer cells lines or normal cells or mice blood or human urine, for 120 or 600 seconds) or HSP70 (concentration range from 2.5 μM to 0.52 nM) or cmHSP70 (1/1,000). All sensorgrams were corrected for baseline drift by subtracting a control sensor exposed to running buffer only. Each KD was determined with a 1:1 stoichiometry model using a global fit with Rmax unlinked by sensor (ForteBio, Data analysis software version 7.1.0.89).
Exosomes from cancer cells lines or normal cells were bound to surfactant-free white aldehyde-sulfate latex beads ([…], Invitrogen) and concentrated at 1·10^4 beads/μL. Exosomes (30 μg) were incubated with the beads suspension for 15 min and then for 1 h at room temperature (RT) in final volume of 1 mL PBS. Beads were saturated with glycine (100 mM) for 30 minutes at RT and washed twice with PBS supplemented by 3% of FBS. Expression of membranar HSP70 on cells (normal and cancerous) was determined by flow cytometry using cmHSP70 antibody. MSC2 and HCT116 cell death was measured by PS exposure, cells stained with 7AAD and FITC-Annexin V conjugate. All analyses were performed on a LSRII flow cytometer (BD Bioscience).

B16F10 cells = assay: HSP70-exosomes released by cultured B16F10 cells, flow cytometry; type: cell-based, mouse; details: cisplatin 25 μM, FACS
Experimental: FIG. 5: A8 anti-tumor effect in mice is associated to MDSC and an immune anti-tumor response. (A) Mice were sc injected with B16F10 cells (5×10^4). On day 4, when tumor size was about 0.9 mm^3, animals were treated every two days until the end of the experiment with A0 or A8 (3 mg/kg dissolved in PBS, i.p injection). On day 5, half the animals were treated with cisplatin as a single dose (CDDP, i.p injection, 5 mg/kg). At day 18, the percentage of Gr1^+ CD11b^+ cells in the spleen collected from the different groups of mice was analyzed by flow cytometry (6 animals per group). As a MDCS negative control (Ctl) we used animals with no tumor cells injected. Right panels, a representative immunoblot of pSTAT3 in the MDSC (Gr1^+ CD11b^+ cells) isolated from the spleen of control animals (A0/PBS) or A8 and CDDP-treated animals (A8/CDDP). 14-3-3 is used as a loading control. (B) Analysis of tumor growth in the animals described above. Tumor size was measured every two days (6 animals per group). […] (C) HSP70-exosomes isolated from B16F10 cells treated or not with cisplatin (CDDP, 25 μM) were determined by flow cytometry. […]
B16F10, CT26, HCT116 and SW480 cells were cultured for 48 h or 24 h with cisplatin (CDDP) treatment in medium depleted from serum-derived exosomes by overnight centrifugation at 100,000 g. […] The concentration of exosomal proteins was quantified by Lowry assay (Biorad). […]

[1] = tested on: B16F10 tumor-bearing mice; assay: HSP70-exosomes in blood of tumor-bearing mice, A8-BLI protocol; type: in vivo, mouse; details: cisplatin 5 mg/kg, BLI with A8 ligand
B16F10 tumors = assay: B16F10 melanoma tumor model in C57/BL6 mice; type: in vivo, mouse; details: B16F10 tumor-bearing C57/BL6 mice, day 18; A0 or A8 3 mg/kg i.p. every two days; cisplatin single i.p. dose; 6 animals per group
Experimental: FIG. 5: A8 anti-tumor effect in mice is associated to MDSC and an immune anti-tumor response. (A) Mice were sc injected with B16F10 cells (5×10^4). On day 4, when tumor size was about 0.9 mm^3, animals were treated every two days until the end of the experiment with A0 or A8 (3 mg/kg dissolved in PBS, i.p injection). On day 5, half the animals were treated with cisplatin as a single dose (CDDP, i.p injection, 5 mg/kg). At day 18, the percentage of Gr1^+ CD11b^+ cells in the spleen collected from the different groups of mice was analyzed by flow cytometry (6 animals per group). As a MDCS negative control (Ctl) we used animals with no tumor cells injected. Right panels, a representative immunoblot of pSTAT3 in the MDSC (Gr1^+ CD11b^+ cells) isolated from the spleen of control animals (A0/PBS) or A8 and CDDP-treated animals (A8/CDDP). 14-3-3 is used as a loading control. (B) Analysis of tumor growth in the animals described above. Tumor size was measured every two days (6 animals per group). The white symbols represent the tumors from animals treated with cisplatin. (C) HSP70-exosomes isolated from B16F10 cells treated or not with cisplatin (CDDP, 25 μM) were determined by flow cytometry. Data represent the percentage of MFI+/−SD (n=3); *, p<0.05. (D) Association curves of HSP70-exosomes present in tumor-bearing mice sera treated or not with cisplatin (5 mg/kg). For the biolayer interferometry, biotinylated A8 was immobilized on streptavidin sensor tips. Curves represent mean values of triplicate measurements for each concentration (for each curve, the blood of 5 mice per group was pooled).
Exponentially growing B16F10 were harvested and resuspended in an RPMI medium without FBS. In vivo studies were performed in wild-type C57/BL6 mice (Charles River). B16F10 cells (5·10^4) were injected s.c. into the right flank Tumor volumes were evaluated every 2 days. Mice were treated with a control peptide aptamer A0 (3 mg/kg) or the HSP70 aptamer A8 (3 mg/kg) and half mice were treated with cisplatin (CDDP, […]). The animals were treated according to the guidelines of the Ministère de la Recherche et de la Technologie, France. All experiments were approved by the Comité d'Ethique de l'Université de Bourgogne.
MDSC cell isolation and analysis: Single-cell suspensions were prepared from spleens, and red cells were removed using ammonium chloride lysis buffer. Gr-1+ cells were isolated from spleens of different group of tumor-bearing mice or naive mice by labeling the cells with PE Cy7 Ab to Gr-1, then using magnetic PE Cy7 beads and LS MACS columns (Miltenyi Biotec). For extracellular staining of immune markers, single-cell suspensions were prepared. We incubated 1·10^6 freshly prepared cells with fluorochrome-coupled CD11b antibody (eBioscience). All events were acquired by a BD Bioscience LSR-II device and analyzed with FlowJo (Tree Star).
Animals were killed 18 days after cell injection. The site of tumor cell injection was resected and snap-frozen in liquid nitrogen. An immunohistochemical study of tumor-infiltrating inflammatory cells was performed on acetone-fixed 5 μm cryostat sections.
Next, we tested whether A8 was also able to block the immunosuppressive effect of MDSC in an in vivo cancer model. We performed subcutaneous injection at day 0 of B16F10 cells or media as a control in C57/BL6 mice. When tumor size reached about 0.9 mm^3 ([…]), mice were treated i.p. with a control peptide aptamer (A0) or A8 every two days until the end of the experiment. When indicated, half of the animals received cisplatin (CDDP, […], i.p.) as a single dose. Tumor growth was measured every two days. After 18 days, we analyzed the percentage of MDSC present in mice spleen (6 animals per group) by FACS using the specific markers Gr1^+ and CD11b^+ (FIG. 5A). […]

MSC2 cells = assay: pSTAT3 western blot in MSC2 cells incubated with tumor-derived exosomes; type: cell-based; details: exosomes from CT26, B16F10, HCT116, SW480; 4 h and 6 h; aptamer 16 μM
Experimental: FIG. 4: A8 blocks the activation and proliferation of MSC2 cells. (A) IL-6 concentration was determined by ELISA in the supernatant of MSC2 cells incubated or not for 24 h with exosomes (from B16F10) in the presence or absence of A8. *, p<0.05, (n=3). (B) A representative image of a western blot showing the kinetics of STAT3 phosphorylation in MCS2 cells incubated or not with exosomes isolated from B16F10, CT26 or HCT116 cells together with a peptide control (TDE) or A8 (TDE/A8). 14-3-3 is used as a loading control. In the right panels, the amount of pSTAT3 was quantified by densitometric analysis. *, p<0.05, n=4.
Five millions of MSC2 cells were incubated with or without exosomes isolated from B16F10, CT26, HCT116 or SW480 cells in the presence or absence of A8 during 4 h or 6 h. Cells were isolated, lysed and analysed for pSTAT3 by western blotting.
MSC2 (2·10^6) or MDSC (2·10^6) were incubated alone or with exosomes (from B16F10, CT26, HCT116, SW480) in the absence or presence of A8 or A17 (16 μM) during 6 hours (RPMI 10% FBS, 5% of CO2 at 37° C.). Every 2 hours, […] cells were sampled and centrifugated 5 min at 300 g. Cells were lysed in lysis buffer (50 mM HEPES (pH 7.6), 150 mM NaCl, 5 mM EDTA, and 0.1% NP40 and anti-phosphatases, Roche). Then, pSTAT3 and STAT3 expression were analyzed by western blotting.

Row | Molecule | amount of HSP70-exosomes released, dose-response (HCT116 cells) | number of exosomes at higher doses (HCT116 cells) | amount of HSP70-exosomes released, extent of increase (HCT116 cells) | other results
1 | O=c1[nH]cc(F)c(=O)[nH]1 [5-fluorouracil] | increased with drug concentration | drastically decreased | greater | 
2 | N.N.[Cl][Pt][Cl] [cisplatin] | increased with drug concentration | drastically decreased |  | amount of HSP70-exosomes released by B16F10 cancer cells (B16F10 cells): strongly increased; amount of HSP70-exosomes in the blood [1]: much stronger; percentage of MDSC (Gr1+ CD11b+) in spleen (B16F10 tumors): 9+/−0.9%
3 | COc1cccc2c1C(=O)c1c(O)c3c(c(O)c1C2=O)C[C@@](O)(C(=O)CO)C[C@@H]3O[C@H]1C[C@H](N)[C@H](O)[C@H](C)O1 [doxorubicin] | increased with drug concentration | drastically decreased | lesser | 
4 | Nc1ccn([C@@H]2O[C@H](CO)[C@@H](O)C2(F)F)c(=O)n1 [gemcitabine] |  |  | induce an increase in the amount of HSP70-exosomes | 
5 | O=C1[O][Pt]2([NH][C@@H]3CCCC[C@H]3[NH]2)[O]C1=O [oxaliplatin] |  |  | greater | 
6 | CC(=O)O[C@H]1C(=O)[C@@]2(C)[C@H]([C@H](OC(=O)c3ccccc3)[C@]3(O)C[C@H](OC(=O)[C@H](O)[C@@H](NC(=O)c4ccccc4)c4ccccc4)C(C)=C1C3(C)C)[C@]1(OC(C)=O)CO[C@@H]1C[C@@H]2O [paclitaxel] |  |  | induce an increase in the amount of HSP70-exosomes | 
7 | YCAYYSPRHKTTF (Synthetic Aptamer A17) [reference compound] |  |  |  | STAT3 phosphorylation (activation) in MSC2 induced by tumor-derived exosomes (MSC2 cells): did not interfere
